# According to patent publication US12084436B2, “Heterocyclic compound” (Takeda Pharmaceutical Company Limited, priority 2019, dated 2024):
# Target: T1, HDAC6 enzyme (Homo sapiens, UniProt Q9UBN7)
# T1 construct: prepared by transducing full length HDAC6 gene into Sf-9 insect cells; GST; purchased SignalChem; host or cells: Sf-9 insect cells
# T1 sequence (Q9UBN7 1-1215): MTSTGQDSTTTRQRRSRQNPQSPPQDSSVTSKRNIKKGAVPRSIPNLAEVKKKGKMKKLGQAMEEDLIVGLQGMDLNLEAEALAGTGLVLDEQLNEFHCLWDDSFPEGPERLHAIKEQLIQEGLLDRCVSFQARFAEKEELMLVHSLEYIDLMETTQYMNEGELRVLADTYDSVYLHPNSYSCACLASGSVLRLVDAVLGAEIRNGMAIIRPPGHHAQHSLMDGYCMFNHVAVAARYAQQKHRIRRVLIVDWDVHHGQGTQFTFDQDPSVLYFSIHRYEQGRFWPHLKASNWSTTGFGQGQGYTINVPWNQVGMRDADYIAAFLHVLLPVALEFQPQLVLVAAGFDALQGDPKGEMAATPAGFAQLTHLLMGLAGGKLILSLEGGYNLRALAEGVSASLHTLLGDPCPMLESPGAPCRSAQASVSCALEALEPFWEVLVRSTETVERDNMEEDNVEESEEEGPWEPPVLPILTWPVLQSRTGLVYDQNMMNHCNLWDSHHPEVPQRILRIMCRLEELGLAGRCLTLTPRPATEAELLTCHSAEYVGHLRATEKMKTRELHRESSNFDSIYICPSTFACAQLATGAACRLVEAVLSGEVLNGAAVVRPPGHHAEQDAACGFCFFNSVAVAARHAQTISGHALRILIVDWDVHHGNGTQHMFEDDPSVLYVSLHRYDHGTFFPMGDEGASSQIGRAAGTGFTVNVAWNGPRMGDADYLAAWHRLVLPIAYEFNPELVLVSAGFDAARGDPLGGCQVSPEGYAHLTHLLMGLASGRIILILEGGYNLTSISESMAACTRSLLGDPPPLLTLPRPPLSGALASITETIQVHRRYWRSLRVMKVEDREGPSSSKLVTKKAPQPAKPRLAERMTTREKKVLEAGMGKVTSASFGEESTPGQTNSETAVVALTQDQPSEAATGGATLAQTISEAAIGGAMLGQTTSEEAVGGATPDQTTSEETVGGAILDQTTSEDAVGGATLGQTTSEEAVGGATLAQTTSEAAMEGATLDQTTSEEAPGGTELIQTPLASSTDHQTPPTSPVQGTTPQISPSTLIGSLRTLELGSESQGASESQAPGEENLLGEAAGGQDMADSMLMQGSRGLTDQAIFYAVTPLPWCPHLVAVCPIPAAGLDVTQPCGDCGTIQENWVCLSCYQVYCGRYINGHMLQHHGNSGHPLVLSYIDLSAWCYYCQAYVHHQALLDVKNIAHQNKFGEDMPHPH
# Assay: HDAC6 enzyme inhibitory assay (HDAC-Glo I/II Assay kit, luminescence)
# Type: biochemical
# Conditions: 10 μM test compound; wells without enzyme = 100% inhibition; read-out: HDAC6 inhibitory rate (%) (10 μM)
# Procedure: HDAC6 Enzyme Inhibitory Assay
# HDAC6 enzyme prepared by transducing full length HDAC6 gene into Sf-9 insect cells and purifying by GST affinity column were purchased from SignalChem. Using this enzyme, HDAC6 enzyme inhibitory activities of the compound of the present invention were evaluated. Enzymes were used after preserved at −70° C. HDAC6 enzyme inhibitory activity of the compound of the present invention was measured using HDAC-Glo™ I/II Assay kit (Promega) according to the following experimental method. The test compound diluted with assay buffer (24 mM Tris-HCl (pH 7.5), 1 mM MgCl2, 0.35 mM KCl, 135 mM NaCl, 0.6 mM Glutathione, 0.01% Tween-20) was added to a 384-well plate by each 2 μL. Then, HDAC6 enzyme solution diluted with assay buffer was added thereto by each 4 μL, and the plate was incubated at room temperature for 60 min. After incubated, HDAC substrate-Developer solution prepared according to Promega protocol attached to the assay kit was added to the 384-well plate by each 2 μL, and the enzyme reaction was started. After reacting at room temperature for 20 min, luminescence level was measured using plate reader Envision (PerkinElmer). The inhibitory activity of each compound of Example was calculated as a relative activity value when luminescence level in wells without enzyme is considered as 100% inhibition.
structure (smiles),measurement,value
"FC(F)c1nnc(-c2ccnc(-c3ncc(Cl)n3Cc3ccccn3)c2)o1 [Example 38a, 2-[5-chloro-1-[(pyridin-2-yl)methyl]-1H-imidazol-2-yl}-4-[5-(difluoromethyl)-1,3,4-oxadiazol-2-yl]pyridine]",inhibition at 10 µM,98%
"Cc1cc(Cn2ccnc2-c2cc(F)cc(-c3nnc(C(F)F)o3)c2)n(C)n1 [Example 64a, 2-(difluoromethyl)-5-(3-{1-[(1,3-dimethyl-1H-pyrazol-5-yl)methyl]-1H-imidazol-2-yl}-5-fluorophenyl)-1,3,4-oxadiazole]",inhibition at 10 µM,98%
"CCOC(=O)CCCN(C)N1Cc2ccc(-c3nnc(C(F)F)o3)cc2C1=O [Example 50c, ethyl 4-[{6-[5-(difluoromethyl)-1,3,4-oxadiazol-2-yl]-1-oxo-1,3-dihydro-2H-isoindol-2-yl}(methyl)amino]butanoate]",inhibition at 10 µM,98%
"O=C1c2cc(-c3nnc(C(F)F)o3)ccc2CN1Nc1ccc(F)c(F)c1 [Example 36c, 2-(3,4-difluoroanilino)-6-[5-(difluoromethyl)-1,3,4-oxadiazol-2-yl]-2,3-dihydro-1H-isoindol-1-one]",inhibition at 10 µM,98%
"Fc1cccc(Cn2ccnc2-c2cc(F)cc(-c3nnc(C(F)F)o3)c2)c1 [Example 44a, 2-(difluoromethyl)-5-(3-fluoro-5-{1-[(3-fluorophenyl)methyl]-1H-imidazol-2-yl}phenyl)-1,3,4-oxadiazole]",inhibition at 10 µM,99%
"FC(F)c1nnc(-c2cncc(-c3nccn3Cc3ccccc3)c2)o1 [Example 37a, 3-(1-benzyl-1H-imidazol-2-yl)-5-[5-(difluoromethyl)-1,3,4-oxadiazol-2-yl]pyridine]",inhibition at 10 µM,99%
"COC(=O)N(Cc1ccc(F)cc1)N1Cc2ccc(-c3nnc(C(F)F)o3)cc2C1=O [Example 1c, methyl {6-[5-(difluoromethyl)-1,3,4-oxadiazol-2-yl]-1-oxo-1,3-dihydro-2H-isoindol-2-yl}[(4-fluorophenyl)methyl]carbamate]",inhibition at 10 µM,99%
"Fc1cc(-c2nnc(C(F)F)o2)cc(-c2nccn2Cc2ccccc2)c1 [Example 4a, 2-[3-(1-benzyl-1H-imidazol-2-yl)-5-fluorophenyl]-5-(difluoromethyl)-1,3,4-oxadiazole]",inhibition at 10 µM,99%
"O=C1c2cc(-c3nnc(C(F)F)o3)ccc2CN1NCc1ccc(F)cc1 [Example 6c, 6-[5-(difluoromethyl)-1,3,4-oxadiazol-2-yl]-2-{[(4-fluorophenyl)methyl]amino}-2,3-dihydro-1H-isoindol-1-one]",inhibition at 10 µM,99%
"CN1C(=O)c2cc(-c3nnc(C(F)F)o3)ccc2OC1(C)c1cccc(Cl)c1 (stereo not shown) [Example 19b, 2-(3-chlorophenyl)-6-[5-(difluoromethyl)-1,3,4-oxadiazol-2-yl]-2,3-dimethyl-2,3-dihydro-4H-1,3-benzoxazin-4-one]",inhibition at 10 µM,100%
"Fc1cc(-c2nnc(C(F)F)o2)cc(-n2nccc2OC2CCOCC2)c1 [Example 47a, 2-(difluoromethyl)-5-(3-fluoro-5-{5-[(oxan-4-yl)oxy]-1H-pyrazol-1-yl}phenyl)-1,3,4-oxadiazole]",inhibition at 10 µM,99%
"Fc1cc(-c2nnc(C(F)F)o2)cc(-c2nccn2Cc2cscn2)c1 [Example 60a, 2-(difluoromethyl)-5-(3-fluoro-5-{1-[(1,3-thiazol-4-yl)methyl]-1H-imidazol-2-yl}phenyl)-1,3,4-oxadiazole]",inhibition at 10 µM,98%
"Cc1nn(C)cc1Cn1ccnc1-c1cc(F)cc(-c2nnc(C(F)F)o2)c1 [Example 63a, 2-(difluoromethyl)-5-(3-{1-[(1,3-dimethyl-1H-pyrazol-4-yl)methyl]-1H-imidazol-2-yl}-5-fluorophenyl)-1,3,4-oxadiazole]",inhibition at 10 µM,97%
"Cn1ccc(OC2CCOCC2)c(-c2cc(-c3nnc(C(F)F)o3)ccn2)c1=O [Example 91a, 4-[5-(difluoromethyl)-1,3,4-oxadiazol-2-yl]-1′-methyl-4′-[(oxan-4-yl)oxy][2,3′-bipyridine]-2′(1′H)-one]",inhibition at 10 µM,100%
"CN(CC1CC(F)(F)C1)N1Cc2ccc(-c3nnc(C(F)F)o3)cc2C1=O [Example 64c, 2-{[(3,3-difluorocyclobutyl)methyl] (methyl)amino}-6-[5-(difluoromethyl)-1,3,4-oxadiazol-2-yl]-2,3-dihydro-1H-isoindol-1-one]",inhibition at 10 µM,99%
"COC(=O)c1ccccc1CN(C)N1Cc2ccc(-c3nnc(C(F)F)o3)cc2C1=O [Example 44c, methyl 2-{[{6-[5-(difluoromethyl)-1,3,4-oxadiazol-2-yl]-1-oxo-1,3-dihydro-2H-isoindol-2-yl}(methyl)amino]methyl}benzoate]",inhibition at 10 µM,102%
"CN(Cc1ccnc(F)c1)N1Cc2ccc(-c3nnc(C(F)F)o3)cc2C1=O [Example 51c, 6-[5-(difluoromethyl)-1,3,4-oxadiazol-2-yl]-2-{[(2-fluoropyridin-4-yl)methyl](methyl)amino}-2,3-dihydro-1H-isoindol-1-one]",inhibition at 10 µM,100%
"CCOC(=O)C(C)CN(C)N1Cc2ccc(-c3nnc(C(F)F)o3)cc2C1=O (stereo not shown) [Example 43c, ethyl 3-[{6-[5-(difluoromethyl)-1,3,4-oxadiazol-2-yl]-1-oxo-1,3-dihydro-2H-isoindol-2-yl}(methyl)amino]-2-methylpropanoate]",inhibition at 10 µM,94%
"C[C@]1(c2ccc(F)cc2)Cc2ncc(-c3nnc(C(F)F)o3)cc2C(=O)N1CC(F)F [Example 55b, (7R)-6-(2,2-difluoroethyl)-3-[5-(difluoromethyl)-1,3,4-oxadiazol-2-yl]-7-(4-fluorophenyl)-7-methyl-7,8-dihydro-1,6-naphthyridin-5(6H)-one]",inhibition at 10 µM,100%
CC1(COc2cccnc2-c2cc(F)cc(-c3nnc(C(F)F)o3)c2)COC1 [Example 18a],inhibition at 10 µM,98%
"O=C1c2cc(-c3nnc(C(F)F)o3)ccc2CN1Nc1c(F)c(F)c(F)c(F)c1F [Example 32c, 6-[5-(difluoromethyl)-1,3,4-oxadiazol-2-yl]-2-(pentafluoroanilino)-2,3-dihydro-1H-isoindol-1-one]",inhibition at 10 µM,95%
"CNC(=O)c1ccc(Cn2ccnc2-c2cc(F)cc(-c3nnc(C(F)F)o3)c2)cc1F [Example 34a, 4-[(2-{3-[5-(difluoromethyl)-1,3,4-oxadiazol-2-yl]-5-fluorophenyl}-1H-imidazol-1-yl)methyl]-2-fluoro-N-methylbenzamide]",inhibition at 10 µM,98%
"CN1C(=O)c2cc(-c3nnc(C(F)F)o3)ccc2OC1(C)c1ccc(C(F)(F)F)cc1 (stereo not shown) [Example 17b, 6-[5-(difluoromethyl)-1,3,4-oxadiazol-2-yl]-2,3-dimethyl-2-[4-(trifluoromethyl)phenyl]-2,3-dihydro-4H-1,3-benzoxazin-4-one]",inhibition at 10 µM,100%
"Cn1cc(Cn2ccnc2-c2cc(F)cc(-c3nnc(C(F)F)o3)c2)cn1 [Example 59a, 2-(difluoromethyl)-5-(3-fluoro-5-{1-[(1-methyl-1H-pyrazol-4-yl)methyl]-1H-imidazol-2-yl}phenyl)-1,3,4-oxadiazole]",inhibition at 10 µM,99%
"O=C1c2cc(-c3nnc(C(F)F)o3)ccc2CN1NCc1cnn(C2CC2)c1 [Example 9c, 2-{[(1-cyclopropyl-1H-pyrazol-4-yl)methyl]amino}-6-[5-(difluoromethyl)-1,3,4-oxadiazol-2-yl]-2,3-dihydro-1H-isoindol-1-one]",inhibition at 10 µM,97%
